Like-named read-outs stand apart in the source and are kept apart here. One block for each molecule: values may come before it.
Legend:
DYRK1A = DYRK1A (Homo sapiens (Human), UniProt Q13627); assay: DYRK1A kinase assay (HotSpot, Reaction Biology); type: biochemical; settings: purified recombinant kinase, 10 μM ATP, room temperature 120 min
DYRK1B = DYRK1B (Homo sapiens (Human), UniProt Q9Y463); assay: DYRK1B kinase assay (HotSpot, Reaction Biology); type: biochemical
[1] = purified recombinant kinase, 10 μM ATP, room temperature 120 min

Chain of DYRK1B (Q9Y463 whole entry): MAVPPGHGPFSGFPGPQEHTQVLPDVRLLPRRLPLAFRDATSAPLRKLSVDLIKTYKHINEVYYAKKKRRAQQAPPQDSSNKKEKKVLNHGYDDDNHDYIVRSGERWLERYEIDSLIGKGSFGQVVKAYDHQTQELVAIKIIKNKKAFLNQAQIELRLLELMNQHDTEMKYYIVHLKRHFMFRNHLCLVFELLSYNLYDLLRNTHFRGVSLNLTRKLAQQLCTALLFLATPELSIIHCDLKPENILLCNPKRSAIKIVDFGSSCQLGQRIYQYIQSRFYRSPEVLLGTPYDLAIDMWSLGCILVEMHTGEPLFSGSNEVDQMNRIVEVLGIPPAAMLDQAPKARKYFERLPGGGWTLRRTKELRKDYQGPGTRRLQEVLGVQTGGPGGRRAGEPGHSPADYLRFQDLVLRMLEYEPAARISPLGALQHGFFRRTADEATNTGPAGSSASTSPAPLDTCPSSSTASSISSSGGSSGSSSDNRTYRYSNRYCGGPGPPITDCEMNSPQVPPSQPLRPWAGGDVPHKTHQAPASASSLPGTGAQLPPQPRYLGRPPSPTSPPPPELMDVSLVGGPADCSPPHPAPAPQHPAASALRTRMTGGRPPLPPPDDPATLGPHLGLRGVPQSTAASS

Compound: CN(C)C(=N)c1nc2ccc3ncnc(Nc4ccc(Br)cc4F)c3c2s1 [Compound 14]
IC50 (DYRK1A): 147 nM

Compound: N=C(NCc1ccc(F)cc1)c1nc2ccc3ncnc(Nc4ccc(Br)cc4F)c3c2s1 [Compound 16, 9-(4-Bromo-2-fluorophenylamino)-N-(4-fluorobenzyl)thiazolo[5,4-f]quinazoline-2-carboximidamide]
IC50 (DYRK1A): 1000 to 10000 nM

Compound: N=C(NCc1ccncc1)c1nc2ccc3ncnc(Nc4ccc(Br)cc4F)c3c2s1 [Compound 19, 9-(4-Bromo-2-fluorophenylamino)-N-(pyridin-4-ylmethyl)thiazolo[5,4-f]quinazoline-2-carboximidamide]
IC50 (DYRK1A): 1000 to 10000 nM

Compound: NC(=O)c1nc2ccc3ncnc(Nc4ccc(Br)cc4F)c3c2s1 [Compound 36, 9-(4-Bromo-2-fluorophenylamino)thiazolo[5,4-f]quinazoline-2-carboxamide]
IC50 (DYRK1A): 194 nM

Compound: COc1ccc(Nc2ncnc3ccc4nc(C5=NCCO5)sc4c23)cc1 [Compound 42, 2-(4,5-dihydrooxazol-2-yl)-N-(4-methoxyphenyl)thiazolo[5,4-f]quinazolin-9-amine]
IC50 (DYRK1B; [1]): 18700 nM

Compound: COC(=N)c1nc2ccc3ncnc(Nc4ccc(Br)cc4F)c3c2s1 [Compound 44, Methyl 9-(4-bromo-2-fluorophenylamino)thiazolo[5,4-f]quinazoline-2-carbimidate]
IC50 (DYRK1B): 6.55 nM | IC50 (DYRK1A): 3.6 nM

Compound: COC(=N)c1nc2ccc3ncnc(Nc4ccc(OC)cc4)c3c2s1 [Compound 45, Methyl 9-(4-methoxyphenylamino)thiazolo[5,4-f]quinazoline-2-carbimidate]
IC50 (DYRK1B; [1]): 19.2 nM | IC50 (DYRK1A): 13.1 nM

Compound: COC(=N)c1nc2ccc3ncnc(Nc4ccc(OC)c(OC)c4)c3c2s1 [Compound 51, Methyl 9-(3,4-dimethoxyphenylamino)thiazolo[5,4-f]quinazoline-2-carbimidate]
IC50 (DYRK1B; [1]): 161 nM

Compound: COC(=N)c1nc2ccc3ncnc(Nc4ccc(Cl)cc4)c3c2s1 [Compound 56, Methyl 9-(4-chlorophenylamino)thiazolo[5,4-f]quinazoline-2-carbimidate]
IC50 (DYRK1B; [1]): 4.74 nM | IC50 (DYRK1A): 1.13 nM

Compound: C#Cc1cccc(Nc2ncnc3ccc4nc(C(=N)OC)sc4c23)c1 [Compound 58, Methyl 9-(3-ethynylphenylamino)thiazolo[5,4-f]quinazoline-2-carbimidate]
IC50 (DYRK1B; [1]): 46.3 nM | IC50 (DYRK1A): 40.8 nM

Compound: COC(=N)c1nc2ccc3ncnc(Nc4ccc(O)c([N+](=O)[O-])c4)c3c2s1 [Compound 60, Methyl 9-(4-hydroxy-3-nitrophenylamino)thiazolo[5,4-f]quinazoline-2-carbimidate]
IC50 (DYRK1B; [1]): 5.68 nM | IC50 (DYRK1A): 4.91 nM

Compound: COC(=N)c1nc2ccc3ncnc(Nc4cc(OC)c(OC)c(OC)c4)c3c2s1 [Compound 61, Methyl 9-(3,4,5-trimethoxyphenylamino)thiazolo[5,4-f]quinazoline-2-carbimidate]
IC50 (DYRK1B; [1]): 486 nM | IC50 (DYRK1A): 436 nM

Compound: COC(=N)c1nc2ccc3ncnc(Nc4ccc(OC)cc4OC)c3c2s1 [Compound 62, Methyl 9-(2,4-dimethoxyphenylamino)thiazolo[5,4-f]quinazoline-2-carbimidate]
IC50 (DYRK1B; [1]): 11.1 nM | IC50 (DYRK1A): 9.53 nM

Compound: COC(=N)c1nc2ccc3ncnc(Nc4cc(OC)cc(OC)c4)c3c2s1 [Compound 63, Methyl 9-(3,5-dimethoxyphenylamino)thiazolo[5,4-f]quinazoline-2-carbimidate]
IC50 (DYRK1A): 299 nM

Compound: COC(=N)c1nc2ccc3ncnc(Nc4ccccc4)c3c2s1 [Compound 64, Methyl 9-(phenylamino)thiazolo[5,4-f]quinazoline-2-carbimidate]
IC50 (DYRK1B; [1]): 3.48 nM | IC50 (DYRK1A): 1.81 nM

Compound: COC(=N)c1nc2ccc3ncnc(Nc4ccc(C)cc4)c3c2s1 [Compound 65, Methyl 9-(p-tolylamino)thiazolo[5,4-f]quinazoline-2-carbimidate]
IC50 (DYRK1B; [1]): 2.83 nM | IC50 (DYRK1A): 0.98 nM

Compound: COC(=N)c1nc2ccc3ncnc(Nc4ccc(F)cc4)c3c2s1 [Compound 66, Methyl 9-(4-fluorophenylamino)thiazolo[5,4-f]quinazoline-2-carbimidate]
IC50 (DYRK1B; [1]): 9.64 nM | IC50 (DYRK1A): 6.06 nM

Compound: COC(=N)c1nc2ccc3ncnc(Nc4cccc(C#N)c4)c3c2s1 [Compound 67, Methyl 9-(3-cyanophenylamino)thiazolo[5,4-f]quinazoline-2-carbimidate]
IC50 (DYRK1B; [1]): 72 nM | IC50 (DYRK1A): 42.7 nM

Compound: COC(=N)c1nc2ccc3ncnc(Nc4ccc(F)cc4Br)c3c2s1 [Compound 68, Methyl 9-(2-bromo-4-fluorophenylamino)thiazolo[5,4-f]quinazoline-2-carbimidate]
IC50 (DYRK1B; [1]): 0.24 nM | IC50 (DYRK1A): 0.16 nM

Compound: COC(=N)c1nc2ccc3ncnc(Nc4ccc(C#N)cc4)c3c2s1 [Compound 70, Methyl 9-(4-cyanophenylamino)thiazolo[5,4-f]quinazoline-2-carbimidate]
IC50 (DYRK1B; [1]): 7.69 nM | IC50 (DYRK1A): 3.89 nM

Compound: COC(=N)c1nc2ccc3ncnc(Nc4ccc(Cl)cc4Cl)c3c2s1 [Compound 72, Methyl 9-(2,4-dichlorophenylamino)thiazolo[5,4-f]quinazoline-2-carbimidate]
IC50 (DYRK1B; [1]): 0.28 nM | IC50 (DYRK1A): 0.22 nM

Compound: COC(=N)c1nc2ccc3ncnc(Nc4ccc(OC)c([N+](=O)[O-])c4)c3c2s1 [Compound 73, Methyl 9-(4-methoxy-3-nitrophenylamino)thiazolo[5,4-f]quinazoline-2-carbimidate]
IC50 (DYRK1A): 124 nM

Compound: COC(=N)c1nc2ccc3ncnc(Nc4ccc(C(C)(C)C)cc4)c3c2s1 [Compound 74, Methyl 9-(4-tert-butylphenylamino)thiazolo[5,4-f]quinazoline-2-carbimidate]
IC50 (DYRK1B; [1]): 93.8 nM | IC50 (DYRK1A): 39 nM

Compound: COC(=N)c1nc2ccc3ncnc(Nc4cccc(Cl)c4)c3c2s1 [Compound 75, Methyl 9-(3-chlorophenylamino)thiazolo[5,4-f]quinazoline-2-carbimidate]
IC50 (DYRK1B; [1]): 18.8 nM | IC50 (DYRK1A): 13.6 nM

Compound: COC(=N)c1nc2ccc3ncnc(Nc4ccc(N(C)C)cc4)c3c2s1 [Compound 76, Methyl 9-(4-(dimethylamino)phenylamino)thiazolo[5,4-f]quinazoline-2-carbimidate]
IC50 (DYRK1B; [1]): 64.3 nM | IC50 (DYRK1A): 35.6 nM

Compound: COC(=N)c1nc2ccc3ncnc(Nc4ccc(F)cc4F)c3c2s1 [Compound 78, Methyl 9-(2,4-difluorophenylamino)thiazolo[5,4-f]quinazoline-2-carbimidate]
IC50 (DYRK1B; [1]): 1.07 nM | IC50 (DYRK1A): 0.94 nM

Further lines, results first:

IC50 (DYRK1A): 1000 to 10000 nM
Compound: CN(C)C(=N)c1nc2ccc3ncnc(Nc4ccc(F)c(Cl)c4)c3c2s1 [Compound 7, 9-(3-Chloro-4-fluorophenylamino)-N,N-dimethylthiazolo[5,4-f]quinazoline-2-carboximidamide]

IC50 (DYRK1A): 1000 to 10000 nM
Compound: N=C(NCCN1CCOCC1)c1nc2ccc3ncnc(Nc4ccc5c(c4)OCO5)c3c2s1 [Compound 29, 9-(Benzo[d][1,3]dioxol-5-ylamino)-N-(2-morpholinoethyl)thiazolo[5,4-f]quinazoline-2-carboximidamide]

IC50 (DYRK1A): 1000 to 10000 nM
Compound: N=C(NCCN1CCCCC1)c1nc2ccc3ncnc(Nc4ccc5c(c4)OCO5)c3c2s1 [Compound 30, 9-(Benzo[d][1,3]dioxol-5-ylamino)-N-(2-(piperidin-1-yl)ethyl)thiazolo[5,4-f]quinazoline-2-carboximidamide]

IC50 (DYRK1A): 431 nM
Compound: CN(C)CCNC(=N)c1nc2ccc3ncnc(Nc4ccc5c(c4)OCO5)c3c2s1 [Compound 33, 9-(Benzo[d][1,3]dioxol-5-ylamino)-N-(2-(dimethylamino)ethyl)thiazolo[5,4-f]quinazoline-2-carboximidamide]

IC50 (DYRK1A): 1000 to 10000 nM
Compound: CCN(CC)CCNC(=N)c1nc2ccc3ncnc(Nc4ccc5c(c4)OCO5)c3c2s1 [Compound 34, 9-(Benzo[d][1,3]dioxol-5-ylamino)-N-(2-(diethylamino)ethyl)thiazolo[5,4-f]quinazoline-2-carboximidamide]

IC50 (DYRK1B; [1]): 3.66 nM | IC50 (DYRK1A): 2.76 nM
Compound: COC(=N)c1nc2ccc3ncnc(Nc4cc(Br)c5c(c4)OCO5)c3c2s1 [Compound 47, Methyl 9-(7-bromobenzo[d][1,3]dioxol-5-ylamino)thiazolo[5,4-f]quinazoline-2-carbimidate]

IC50 (DYRK1B; [1]): 4.2 nM
Compound: COC(=N)c1nc2ccc3ncnc(Nc4ccc5c(c4)OCO5)c3c2s1 [Compound 48, Methyl 9-(benzo[d][1,3]dioxol-5-ylamino)thiazolo[5,4-f]quinazoline-2-carbimidate]

IC50 (DYRK1A): 8 nM
Compound: COC(=N)c1nc2ccc3ncnc(Nc4ccc5c(c4)OCCO5)c3c2s1 [Compound 49, Methyl 9-(2,3-dihydrobenzo[b][1,4]dioxin-6-ylamino)thiazolo[5,4-f]quinazoline-2-carbimidate]

IC50 (DYRK1A): 66.8 nM
Compound: COC(=N)c1nc2ccc3ncnc(Nc4ccc(Cl)c(Cl)c4)c3c2s1 [Compound 57, Methyl 9-(3,4-dichlorophenylamino)thiazolo[5,4-f]quinazoline-2-carbimidate]

IC50 (DYRK1B; [1]): 186 nM | IC50 (DYRK1A): 54.8 nM
Compound: COC(=N)c1nc2ccc3ncnc(Nc4ccc(N5CCCC5)cc4)c3c2s1 [Compound 77, Methyl 9-(4-(pyrrolidin-1-yl)phenylamino)thiazolo[5,4-f]quinazoline-2-carbimidate]

IC50 (DYRK1B; [1]): 11 nM | IC50 (DYRK1A): 8.63 nM
Compound: COC(=N)c1nc2ccc3ncnc(Nc4ccc(O)c(F)c4)c3c2s1 [Compound 79, Methyl 9-(3-fluoro-4-hydroxyphenylamino)thiazolo[5,4-f]quinazoline-2-carbimidate]

Source: patent US9446044B2, “DYRK1 inhibitors and uses thereof” (DIAXONHIT, priority 2011, dated 2016)
